The subject of experiment [1] is canonical BMP receptor signaling pathway. The experiment in a line: Inhibitor study with DMH1, western blot of hMSCs on scaffolds. The following applies: 50 μM. The class given is cell-based, human. The procedure:
(§1) Osteogenic differentiation of hMSCs on Col-GAG and MC-GAG: 3×10^5 hMSCs were seeded onto 8 mm discs of CG-GAG and MC-GAG scaffolds in proliferation media. 24 h after seeding, media was switched to osteogenic differentiation media consisting of 10 mM β-glycerophosphate, 50 μg/mL ascorbic acid, and 0.1 μM dexamethasone. For inhibitor studies, scaffolds were treated or untreated with dorsomorphin homologue 1 (DMH1; Sigma-Aldrich) or PD98059 (Cell Signaling Technologies, Beverly, MA) separately, all at a concentration of 50 μM. Fresh DMH1 and PD98059 were added to each media change every 3 days.
(§2) Western blot: Lysates were prepared from scaffolds at 0, 4, 14, and 24 days of culture using SDS sample buffer and equal amounts were subjected to 4-20% SDS-PAGE (Bio-Rad, Hercules, CA). Western blot analysis was carried out with antibodies against OPG, RANKL, phosphorylated small mothers against decapentaplegic 1/5 (p-Smad1/5), total Smad5, phosphorylated extracellular regulated kinase 1/2 (p-ERK1/2), total ERK1/2, and […] followed by 1:4000 dilutions of HRP-conjugated IgG antibodies (Bio-Rad, Hercules, CA) and an enhanced chemiluminescent substrate (Thermo Scientific, Rockford, IL). For detection of p-Smad1/5 and total Smad5, 10 μg of lysate was loaded per lane. For detection of OPG, RANKL, p-ERK1/2, total ERK1/2, and β-actin, 20 μg of lysate was loaded per lane. All antibodies were obtained from Cell Signaling Technologies (Beverly, MA) with the exception of RANKL, OPG, and β-actin antibodies which were obtained from Santa Cruz Biotechnology (Santa Cruz, CA). Imaging analysis was carried out using ImageJ (NIH, Bethesda, MD).
(§3) To characterize the mechanism responsible for differential OPG expression osteogenically differentiated hMSCs cultured on MC-GAG versus Col-GAG, DMH1, and PD98059 small molecule inhibitors were utilized for the canonical BMP receptor and MEK1/ERK1/2 signaling pathways, respectively (FIG. 11). […] Due to the massive upregulation of Smad1/5 phosphorylation in MC-GAG, a smaller inhibition was noted compared to Col-GAG. […] In contrast, OPG expression was increased in the presence of DMH1 on both Col-GAG and MC-GAG, particularly at the day 14 timepoint.
For orientation: A western blot detects proteins with antibodies after separation by electrophoresis.

Experiment [2] relates to MEK1/ERK1/2 signaling pathway. The experiment in a line: Inhibitor study with PD98059, western blot of hMSCs on scaffolds. Type of experiment: cell-based, human. The note with it: 50 μM. The procedure:
as §1, §2, §3

For `CC(C)Oc1ccc(-c2cnc3c(-c4ccnc5ccccc45)cnn3c2)cc1` [DMH1, dorsomorphin homologue 1], in experiment [1] (MC-GAG at day 4), the “phosphorylated ERK1/2” value is “small elevation”. In addition, the OPG expression result in experiment [1] (both Col-GAG and MC-GAG, particularly day 14) is on record as “increased”. Further, in experiment [1] (hMSCs on Col-GAG and MC-GAG), the “total Smad5, total ERK1/2, RANKL, or actin” value was “No differences”. Besides, the “phosphorylation of Smad1/5” value in experiment [1] (hMSCs on either material) is “partially decreased at all timepoints”.

For the molecule `COc1cccc(-c2cc(=O)c3ccccc3o2)c1N` [PD98059], the “phosphorylated Smad1/5, total Smad5, total ERK1/2, or actin” value in experiment [2] was “no effects”. Also, the “phosphorylated ERK1/2” value in experiment [2] (all timepoints, either material) is recorded as “decreased”. Also, the OPG protein expression result is “no differences were detected” in experiment [2] (hMSCs on Col-GAG) and “decreased” in experiment [2] (hMSCs on MC-GAG, all timepoints). The RANKL expression result is “no differences were detected” in experiment [2] (hMSCs on Col-GAG) and “downregulated” in experiment [2] (hMSCs on MC-GAG, particularly day 24).

The values are drawn from patent US20250281628A1, “COMPOSITE NANOPARTICULATE MINERALIZED COLLAGEN GLYCOSAMINOGLYCAN MATERIALS WITH TIME RELEASE ANTI-RESORPTIVE FACTORS” (The Regents of the University of California, priority 2021, published 2025).
